Experiments:
Format in all cases: toxicity, cell-based
[1] = tested on: U2OS; assay: Incucyte cell viability with U2OS; details: human, 10 µM, compound concentration 10 uM
[2] = tested on: HEK-293T; assay: Incucyte cell viability with HEK293T; details: human, 10 µM, compound concentration 10 uM
[3] = tested on: Fibroblast; assay: Incucyte cell viability with human fibroblast; details: 10 µM, compound concentration 10 uM
[4] = 0 h, replicate number 1, timepoint 0 hours
[5] = 12 h, replicate number 1, timepoint 12 hours
[6] = 18 h, replicate number 1, timepoint 18 hours
[7] = 24 h, replicate number 1, timepoint 24 hours
[8] = 24 h, replicate number 2, timepoint 24 hours
[9] = 6 h, replicate number 1, timepoint 6 hours
[10] = 0 h, replicate number 2, timepoint 0 hours
[11] = 6 h, replicate number 2, timepoint 6 hours
[12] = 12 h, replicate number 2, timepoint 12 hours
[13] = 18 h, replicate number 2, timepoint 18 hours

Measured: Growth Rate
Further: filed as whole numbers so only -1 and 0 and 1 occur.

CC(C)NC(=O)c1ccc(C#Cc2ccncc2)cn1
1: [1]; [5] | [1]; [6] | [1]; [8] | [3]; [10] | [3]; [9] | [3]; [12] | [3]; [6] | [3]; [7]
0: [1]; [4] | [1]; [7] | [2]; [4] | [2]; [9] | [2]; [5] | [2]; [6] | [2]; [7] | [3]; [4] | [3]; [11] | [3]; [5]

O=C1O[C@]2(CC[C@H](C(=O)Nc3ccn(-c4ccccc4F)n3)CC2)c2cnccc21 [MK-0557]
1: [1]; [11] | [1]; [5] | [1]; [6] | [1]; [8] | [3]; [12] | [3]; [13] | [3]; [8]
0: [1]; [10] | [1]; [7] | [2]; [4] | [2]; [9] | [2]; [5] | [2]; [6] | [2]; [7] | [3]; [4] | [3]; [9] | [3]; [5] | [3]; [6] | [3]; [7]

Cc1ccc(-c2cnc([C@@]3(O)CC[C@H](C(=O)O)C(C)(C)C3)s2)cc1Nc1cccc(C(F)(F)F)n1 [MRL-SYKi-NC]
0: [1]; [4] | [1]; [9] | [1]; [5] | [1]; [6] | [1]; [7] | [2]; [4] | [2]; [9] | [2]; [12] | [2]; [8] | [3]; [10] | [3]; [9] | [3]; [5] | [3]; [6] | [3]; [7]
1: [1]; [12] | [1]; [13] | [1]; [8] | [2]; [10] | [2]; [5] | [2]; [6] | [2]; [7]

CCCCCNC(=O)NS(=O)(=O)c1cc([N+](=O)[O-])ccc1NC1CCCCC1
1: [1]; [11] | [1]; [5] | [1]; [13] | [1]; [7] | [2]; [4] | [2]; [11] | [2]; [12] | [2]; [7] | [3]; [10] | [3]; [5] | [3]; [6] | [3]; [7]
0: [1]; [4] | [1]; [6] | [2]; [10] | [2]; [9] | [2]; [5] | [2]; [6] | [2]; [8] | [3]; [4] | [3]; [11] | [3]; [12]

C#C[C@]1(O)CC[C@H]2[C@@H]3CCc4cc(O)ccc4[C@H]3CC[C@@]21C [ETHINYL ESTRADIOL]
1: [1]; [11] | [2]; [8]
-1: [2]; [4]
0: [1]; [10] | [1]; [9] | [1]; [5] | [1]; [6] | [1]; [7] | [2]; [10] | [3]; [9] | [3]; [5] | [3]; [6] | [3]; [7]

FC(F)(F)c1cccc(-c2noc(-c3cc(-c4ccccc4)c(C(F)(F)F)s3)n2)c1
0: [1]; [10] | [1]; [12] | [1]; [13] | [2]; [10] | [2]; [9] | [2]; [5] | [2]; [6] | [2]; [7] | [3]; [4] | [3]; [11] | [3]; [8]
1: [1]; [4] | [1]; [9] | [1]; [5] | [1]; [6] | [1]; [7] | [2]; [4] | [3]; [5] | [3]; [6] | [3]; [7]

Cc1c(NC(=O)c2cc(C(N)=O)nc3cc(F)ccc23)c(C(F)(F)F)nn1Cc1ccc(C(C)(C)C)cc1 [BAY-588]
1: [1]; [5] | [1]; [13] | [1]; [7]
0: [1]; [10] | [1]; [6] | [2]; [4] | [2]; [9] | [2]; [5] | [2]; [6] | [2]; [7] | [3]; [4] | [3]; [9] | [3]; [5] | [3]; [6] | [3]; [7]

Cc1ccc(-c2ccc3c(ccc4sc5c(c43)NC[C@@H](C)NC5=O)n2)cn1
0: [1]; [10] | [3]; [4]
1: [1]; [5] | [1]; [6] | [1]; [7] | [2]; [4] | [2]; [8]

CN(C)[C@H]1CCN(c2cc(-c3ccccc3)nc3ccnn23)C1 [(S)-ZINC-3573]
0: [1]; [9] | [1]; [5] | [1]; [6] | [1]; [7] | [2]; [10] | [2]; [9] | [2]; [5] | [2]; [6] | [2]; [7] | [3]; [4] | [3]; [9] | [3]; [5] | [3]; [6]
1: [1]; [13] | [1]; [8] | [2]; [4] | [3]; [10] | [3]; [7]

CO[C@H]1CC[C@H](CNc2ccc(S(=O)(=O)NC(=O)c3ccc(N4CCN(CC5=C(c6ccc(Cl)cc6)CC(C)(C)CC5)CC4)cc3Oc3cnc4[nH]ccc4c3)cc2[N+](=O)[O-])CC1 [A-1211212]
0: [1]; [4] | [1]; [5] | [1]; [6] | [1]; [7] | [2]; [4] | [2]; [8] | [3]; [4] | [3]; [9] | [3]; [5] | [3]; [6] | [3]; [7]
1: [1]; [9] | [1]; [12] | [1]; [8] | [2]; [11] | [2]; [12] | [2]; [6] | [2]; [7]

O=C(Nc1cccnn1)N1CC(C/C=C/c2cncc(Oc3ccc(C(F)(F)F)cn3)n2)C1
0: [1]; [4] | [1]; [9] | [1]; [13] | [1]; [8] | [2]; [4] | [2]; [9] | [3]; [4]
1: [1]; [10] | [1]; [5] | [1]; [6] | [1]; [7] | [2]; [10] | [2]; [12] | [2]; [7] | [3]; [12] | [3]; [13] | [3]; [7]

O=S(=O)(NC1CCC(c2cc(F)ccc2F)(S(=O)(=O)c2ccc(Cl)cc2)CC1)C(F)(F)F (stereo unspecified) [MRK-560]
1: [1]; [4] | [1]; [9] | [1]; [5] | [1]; [7] | [2]; [10] | [2]; [9] | [3]; [11] | [3]; [5] | [3]; [6] | [3]; [7]
0: [1]; [11] | [1]; [6] | [1]; [8] | [2]; [4] | [2]; [5] | [2]; [6] | [2]; [7] | [3]; [4] | [3]; [12] | [3]; [8]

Cc1c(C(=O)O)cc(-c2ccc(C3CCNCC3)cc2)c2ccc(-c3ccc(C(F)(F)F)cc3)cc12.Cl
1: [1]; [5] | [1]; [13] | [1]; [8] | [3]; [10] | [3]; [11]
0: [1]; [4] | [1]; [6] | [1]; [7] | [2]; [10] | [2]; [9] | [2]; [5] | [2]; [6] | [2]; [7] | [3]; [4] | [3]; [9] | [3]; [5] | [3]; [6] | [3]; [7]

— ChEMBL document CHEMBL4689842, “EUbOPEN Chemogenomics Library wave 1” (2021)
